Source: paper PMC12163684, “Gunacins: Novel Benzo[g]chromene Derivatives from the Fungus Exobasidium sp. and Their Potent Anti-Leishmania and Trypanosoma Activities” (ACS Omega, 2025)
Read-outs that look alike come from different tables or passages of the source.

Experiments:
[1] = test system: Jurkat T-lymphocyte cell line; assay: Cytotoxicity, Hoechst 33258 staining and flow cytometry (FACS LSRII); type: cell-based; conditions: 24 h incubation, flow cytometry, read-out: EC50 ± SEM Jurkat
Experimental: To evaluate the cytotoxicity of the isolated compounds, the immortalized T-lymphocyte cell line Jurkat was cultured in 96-well polypropylene U-bottom plates at a density of approximately 2 × 10^5 cells per well in RPMI1640 medium, with a total volume of 300 μL per well. Cells cultured in RPMI1640 medium alone and in RPMI1640 medium with DMSO were used as negative controls. After 24 h of incubation with the isolated compounds, dissolved in 10 mM DMSO, the cells were washed with PBS solution containing 0.02% gelatin and 0.01% sodium azide. Following this, the cells were stained with the fluorescent dye Hoechst 33258 and analyzed by flow cytometry using a FACS LSRII instrument (BD Biosciences, San Jose, USA) and FlowJo 10 software (Tree Star, Ashland, USA). Initial assays were conducted at concentrations of 5, 25, 50, 100, and 125 μM, with subsequent measurements at concentrations adjusted based on the results of the initial assays, each performed in triplicate. EC50 values were determined using Quest Graph software and the dose–response four parameters regression model. The EC50 values were determined from three independent experiments.

[2] = test system: HeLa adenocarcinoma cell line; assay: Effect on cell morphology, fluorescence microscopy (MitoTracker Red CMXRos, Phalloidin, DAPI); type: cell-based; conditions: 24 h; for concentration at which effects on morphology / mitochondrial signal were observed, HeLa cells: tested at 5, 25, 50, 100, 125 μM
Experimental: (§1) MDCK and RAT cells were cultured in DMEM with 10% FBS at 37 °C in a 5% CO2 atmosphere as described previously. , To assess the toxic effects of the compounds on proliferating cells, cells were seeded in 24-well plates for 24 h to reach ∼15% confluence, and cells were treated in triplicate with increasing concentrations of the isolated compounds for an additional 24 h. Cells were washed with 1× PBS, fixed in staining solution (0.5% crystal violet, 20% methanol) for 10 min, and gently washed five times in 1× PBS. The fixed cells were then dissolved in lysis solution (0.1 M sodium citrate, 25% ethanol, pH 4.2) for 30 min, transferred to a 96-well plate in H2O, and the OD^590 was determined. EC50 values were determined using GraphPad Prism software and the dose–response fit equation. The EC50 values were determined from two independent experiments. Additionally, the impact of the isolated substances on the morphology of the HeLa adenocarcinoma cell line and primary human skin fibroblasts was examined by using fluorescence microscopy. Cells were cultured in DME medium supplemented with 10% FCS (Gibco, Invitrogen, Carlsbad, USA) on glass coverslips in 24-well plates until reaching approximately 50% confluence. The cells were treated with varying concentrations of isolated compounds dissolved in DMSO. Wells containing DMEM with DMSO served as the negative control. After 24 h cultivation, the cells were incubated with MitoTracker Red CMXRos (10 min) to label mitochondria, then fixed with 3.7% paraformaldehyde in PBS (20 min, room temperature), permeabilized with 0.1% Triton X-100 in PBS, and blocked with 1% BSA in PBS. The cells were then stained with Phalloidin-Alexa Fluor488 conjugate. All fluorescence reagents were purchased from Molecular Probes, Invitrogen, Carlsbad, CA, USA. Nuclei were stained with Fluoroshield DAPI (Sigma-Aldrich), and cells were examined using an IX71 microscope equipped with a DP70 camera and a 40× objective. Assays were performed at concentrations of 5, 25, 50, 100, and 125 μM.

[3] = test system: primary human skin fibroblasts; assay: as above; type: cell-based; conditions: 24 h; for concentration at which effects on morphology / mitochondrial signal were observed, fibroblasts: tested at 5, 25, 50, 100, 125 μM
Experimental: as §1

[4] = test system: T. b. gambiense LiTat 1.3; assay: Anti-trypanosomal activity, resazurin (AB assay), bloodstream form; type: cell-based, T. brucei gambiense; conditions: Trypanosoma brucei, 72 h, axenic, 48 h + 24 h resazurin
Experimental: (§2) The bloodstream forms of T. b. gambiense LiTat 1.3, T. b. brucei 427, and T. b. evansi AnTat 3/3 were grown in HMI-11 medium pH 7.3 supplemented with 36 mM sodium bicarbonate, 100 U/mL penicillin/streptomycin, and 10% fetal bovine serum at 37 °C and 5% CO2. The bloodstream form of Trypanosoma congolense IL3000 (generous gift from Liam Morrison) was cultured in TcBSF-1 medium pH 7.3 supplemented with 26 mM sodium bicarbonate, 25 mM HEPES, 5.5 mM glucose, 1 mM sodium pyruvate, 0.04 mM adenosine, 0.1 mM hypoxanthine, 0.02 mM thymidine, 0.02 mM bathocuproine, 2 mM L-glutamine, 0.2 mM 2-mercaptoethanol, 100 U/ml penicillin/streptomycin, and 20% goat serum New Zealand origin (Gibco) at 34 °C, 5% CO2. The assay for anti-trypanosomal activity was performed using the resazurin sodium salt dye (AB Assay) according to the published protocol in a 96-well plate format. Parasites at a number of 5 × 10^3 per well (T. b. brucei and T. b. gambiense) or 1 × 10^4 per well (T. b. evansi) were incubated with different drug concentrations (2-fold serial dilutions) in a volume of 200 μL of the medium. Medium with 1% DMSO (the highest concentration of the solvent used in the assay) was used to confirm no effect of the solvent on the cell growth. The plates were incubated for 48 h at the appropriate temperature. Then, 20 μL of resazurin sodium salt solution (0.125 mg/mL in 1× PBS, pH 7. 4) was added to each well, and the cells were incubated for another 24 h under the same conditions. The fluorescence signal was quantified using a Tecan Infinite M200 plate reader at excitation and emission wavelengths of 560 and 590 nm, respectively. The EC50 values were calculated using GraphPad Prism 9.5.1 by nonlinear regression with a variable slope. Each EC50 value is the mean ± standard error of the mean of three separate experiments performed in duplicate.

T. b. brucei 427 = assay: as above; type: cell-based; conditions: Trypanosoma brucei, 72 h, axenic, 48 h + 24 h resazurin
Experimental: as §2

[5] = test system: L. mexicana (MNYC/BZ/1962/M379) promastigote; assay: Anti-Leishmania activity, AB assay, axenic promastigotes; type: cell-based
Experimental: (§3) Promastigote stages of L. mexicana (MNYC/BZ/1962/M379), a generous gift from Vyacheslav Yurchenko, were cultured in M199 medium pH 7.4 supplemented with 2 μg/mL biopterin, 2 μg/mL hemin, 25 mM HEPES, 100 U/mL penicillin/streptomycin, and 10% heat-inactivated FBS (BioSera) pH 7.4 at 25 °C. The amastigotes were differentiated in vitro from late log/stationary promastigote cultures and cultivated in Schneider’s Drosophila Medium (SIM) at pH 5.5, supplemented with 1.5 μg/mL hemin, 100 U/mL penicillin/streptomycin, and 20% heat-inactivated FBS (BioSera) at pH 5.5, at 32 °C, and 5% CO2. Following a three-day period, the promastigotes underwent a transformation into amastigotes, which were then maintained in SIM.
(§4) To estimate the EC50, the AB assay, as previously described, was employed. The results are expressed as EC50, representing the dose of the compound required to inhibit cellular growth by 50%. Each EC50 value is the mean ± the standard error of the mean derived from at least three separate experiments, each performed in duplicate.

[6] = test system: L. mexicana (MNYC/BZ/1962/M379) amastigote; assay: Anti-Leishmania activity, AB assay, axenic amastigotes; type: cell-based
Experimental: as §3, §4

Compound | EC50 ([1]; Homo sapiens, Jurkat, 24 h) | concentration causing complete loss of live adherent cells, HeLa cells [2] | concentration at which effects on morphology / mitochondrial signal were observed, HeLa cells [2] | concentration at which effects on morphology / mitochondrial signal were observed, fibroblasts [3] | EC50 [4] | EC50 (T. b. brucei 427) | EC50 [5] | EC50 [6] | EC50 [1] | concentration causing complete loss of live adherent cells, fibroblasts [3]
COc1cc(O)c2c(c1)C(=O)C1=C(C2=O)[C@H](O)[C@@H](O)[C@@H](C)O1 (relative stereo) [Compound 3, (2R,3R,4S)-3,4,6-trihydroxy-8-methoxy-2-methyl-3,4-dihydro-2H-benzo[g]chromene-5,10-dione] | 16500 ± 1300 nM | 125 µM | 25 μM | 125 μM | 4100 nM | 4300 nM | 8600 nM | 5600 nM |  | 
COc1cc(O)c2c(c1)C(=O)C1=C(C2=O)[C@@H](O)[C@@H](OC(C)=O)[C@@H](C)O1 [Compound 5, (2R,3R,4R)-4,6-dihydroxy-8-methoxy-2-methyl-5,10-dioxo-3,4,5,10-tetrahydro-2H-benzo[g]chromen-3-yl acetate] | ~1500 nM |  | 125 μM | 5 μM | 30 nM | 60 nM | 240 nM | 10 nM | 1600 ± 100 nM | 
COc1cc(O)c2c(c1)C(=O)C1=C(C2=O)[C@@H](OC(C)=O)[C@@H](O)[C@@H](C)O1 [Compound 1, (2R,3S,4R)-3,6-dihydroxy-8-methoxy-2-methyl-5,10-dioxo-3,4,5,10-tetrahydro-2H-benzo[g]chromen-4-yl acetate] | ~1500 nM |  | 125 μM | 5 μM | 40 nM | 60 nM | 220 nM | 10 nM | 1700 ± 100 nM | 
COc1cc(O)c2c(c1)C(=O)C1=C(C[C@@H](OC(C)=O)[C@@H](C)O1)C2=O [Compound 7, (2R,3R)-6-hydroxy-8-methoxy-2-methyl-5,10-dioxo-3,4,5,10-tetrahydro-2H-benzo[g]chromen-3-yl acetate] | 93200 ± 5900 nM |  | > 125 μM | > 25 μM | 5700 nM | 900 nM | 3600 nM | 2500 nM |  | 125 µM
